From PMC7884692, “Arginine glycosylation enhances methylglyoxal detoxification” (Scientific Reports, 2021)

Molecular target: T1, GloA (Salmonella enterica, UniProt P0A1Q2)
T1 construct: full length, His-tag (modified pET28a, tac promoter), E. coli BL21(DE3); unglycosylated form
T1 sequence (P0A1Q2 1-135): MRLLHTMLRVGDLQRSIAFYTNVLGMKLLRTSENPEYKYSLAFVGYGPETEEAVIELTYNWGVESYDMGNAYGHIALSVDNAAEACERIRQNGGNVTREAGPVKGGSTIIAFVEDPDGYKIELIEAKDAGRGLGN
Assay: S-lactoylglutathione production at OD240
Assay type: biochemical
Details: unglycosylated GloA 50 nM; hemithioacetal from 5 mM glutathione + 5 mM methylglyoxal; 100 mM NaH2PO4 pH 7.0

C[C@@H](O)C(=O)SC[C@H](NC(=O)CC[C@H](N)C(=O)O)C(=O)NCC(=O)O [S-lactoylglutathione]
S-lactoylglutathione production at OD240: both hemithioacetal consumption and S-lactoylglutathione production was measured as a function of time
